This is an account of results in patent US20240042051A1, “MCL-1 INHIBITOR ANTIBODY-DRUG CONJUGATES AND METHODS OF USE” (Novartis AG, priority 2020, published 2024).

pIC50: −log10 of the molar value.

For one experiment, the system named is KMS-21-BM xenografts. Put plainly: KMS-21-BM multiple myeloma xenograft, tumor growth inhibition and delay. The class given is in vivo, NSG mice. Conditions: 0.5 mg/kg QD, single agent. The protocol:
The in vivo therapeutic effect of a CD48-targeting MCL-1 ADC formulated in Phosphate-Buffered Saline (PBS) was determined in KMS-21-BM multiple myeloma model after intravenous (IV) administration.
KMS-21-BM cells, obtained from JCRB, were cultured in RPMI supplemented with 10% FBS. Cells were resuspended in 100% matrigel (BD Biosciences) and 0.1 ml containing 10×10^6 cells were subcutaneously inoculated into the right flank of female NSG mice, provided by Jax. When tumors reached the appropriate volume, mice were randomized, 6 animals per group, using Easy stat software. IgG1-Linker-Payload Fc WT, anti-CD48 NY920_CysmAb Fc WT, anti-CD48 NY920_CysmAb Fc WT_L42-P1 (10 and/or 30 mg/kg) and Bortezomib (0.5 mg/kg) were injected, alone or in combination, once IV in PBS and NaCl 0.9%, respectively. Mice body weight was monitored three times a week and tumor size measured using electronic calipers. Tumor volume was estimated by measuring the minimum and maximum tumor diameters using the formula: (minimum diameter)^2 (maximum diameter)/2. Tumor growth inhibition on day 21 was calculated using the formula: […]
With DTV (Delta Tumor Volume) at Dx, calculated being TV at Dx−TV at Randomization. Tumor Growth Delay (TGD) was calculated as the number of days required for the median tumor volume in each group to reach 500 mm^3. […]

In a further experiment the test system is KMS-27. Put plainly: CellTiter-Glo proliferation assay (Example 7). The class given is cell-based. Conditions: 5 days. As for the experimental part:
(§1) The CD48 MCL-1 antibody drug conjugates were tested against three endogenous cancer cell lines: NCI-H929 (ATCC No. CRL-9068 cultured in RPMI-1640+10% FBS+0.05 mM 2-mercaptoethanol), KMS-21 BM (JCRB No. JCRB1185 cultured in RPMI-1640+10% FBS) and KMS-27 (JCRB No. JCRB1188 cultured in RPMI-1640+10% FBS).
(§2) The ability of the MCL-1 antibody drug conjugates to inhibit cell proliferation and survival was assessed using the Promega CellTiter-Glo® proliferation assay. ADCs were generated generally as described in Example 6. Cell lines were cultured in media that is optimal for their growth at 5% CO2, 37° C. in a tissue culture incubator. Prior to seeding for the proliferation assay, the cells were split at least 2 days before the assay to ensure optimal growth density. On the day of seeding, cell viability and cell density were determined using a cell counter (Vi-Cell XR Cell Viability Analyzer, Beckman Coulter). Cells with higher than 85% viability were seeded in white clear bottom 384-well TC treated plates (Corning cat. #3765). Cells were seeded at a density of 1,000 cells per well in 45 μL of standard growth media. Plates were incubated at 5% CO2, 37° C. overnight in a tissue culture incubator. The next day, free MCL-1 payload (P1), targeting MCL-1 ADCs, and non-targeting isotype (IgG) ADCs were prepared at 10× in standard growth media. The prepared MCL-1 payload (P1) treatment was then added to the cells resulting in final concentrations of 0.005-100 nM and a final volume of 50 uL per well. The prepared CD48 targeting and isotype matched non-targeting control ADC treatments were added to the cells resulting in final concentrations of 0.015-300 nM and a final volume of 50 uL per well. Each drug concentration was tested in quadruplets. Plates were incubated at 5% CO2, 37° C. for 5 days in a tissue culture incubator, after which cell viability was assessed through the addition of 25 μL of CellTiter Glo® (Promega, cat #G7573), a reagent which lyses cells and measures total adenosine triphosphate (ATP) content. Plates were incubated at room temperature for 10 minutes to stabilize luminescent signals prior to reading using a luminescence reader (EnVision Multilabel Plate Reader, PerkinElmer). To evaluate the effect of the drug treatments, luminescent counts from wells containing untreated cells (100% viability) were used to normalize treated samples. A variable slope model was applied to fit a nonlinear regression curve to the data in GraphPad PRISM version 7.02 software. IC50 and Amax values were extrapolated from the resultant curves.

In the next experiment the test system is KMS-21-BM. Kind of experiment: CellTiter-Glo proliferation assay (Example 7). The class given is cell-based. Conditions: 5 days. The protocol: as §1, §2
The next experiment concerns NCI-H929. Kind of experiment: CellTiter-Glo proliferation assay (Example 7). It counts as cell-based. Conditions: 5 days. The protocol:
as §1, §2

In experiment [1] the test system is NCI-H929, KMS-21 BM and KMS-27 cancer cell lines. Kind of experiment: CellTiter-Glo proliferation assay (Example 7), summary over cell lines. It counts as cell-based. Conditions: read-out: IC50 values, range over representative cancer cell lines. As for the experimental part: as §1
The ability of the MCL-1 antibody drug conjugates to inhibit cell proliferation and survival was assessed using the Promega CellTiter-Glo® proliferation assay. ADCs were generated generally as described in Example 6. Cell lines were cultured in media that is optimal for their growth at 5% CO2, 37° C. in a tissue culture incubator. Prior to seeding for the proliferation assay, the cells were split at least 2 days before the assay to ensure optimal growth density. On the day of seeding, cell viability and cell density were determined using a cell counter (Vi-Cell XR Cell Viability Analyzer, Beckman Coulter). […] Plates were incubated at 5% CO2, 37° C. for 5 days in a tissue culture incubator, after which cell viability was assessed through the addition of 25 μL of CellTiter Glo® (Promega, cat #G7573), a reagent which lyses cells and measures total adenosine triphosphate (ATP) content. Plates were incubated at room temperature for 10 minutes to stabilize luminescent signals prior to reading using a luminescence reader (EnVision Multilabel Plate Reader, PerkinElmer). […]

Another experiment concerns KMS27 xenografts. Put plainly: KMS27 multiple myeloma xenograft, tumor growth inhibition and delay. It counts as in vivo, NSG mice. Conditions: 50 mg/kg QD3, PO, single agent. The protocol:
The in vivo therapeutic effect of two CD48-targeting MCL-1 ADCs formulated in Phosphate-Buffered Saline (PBS) was determined in KMS27 multiple myeloma model after intravenous (IV) administration.
KMS27 cells, obtained from JCRB, were cultured in RPMI supplemented with 10% FBS. Cells were resuspended in 50% matrigel (BD Biosciences) and 0.1 ml containing 10×10^6 cells were subcutaneously inoculated into the right flank of female NSG mice, provided by Jax. When tumors reached the appropriate volume, mice were randomized, 6 animals per group, using Easy stat software. Anti-CD48 NY920_CysmAb Fc silent, anti-CD48 NY938_CysmAb Fc silent, anti-CD48 NY920_CysmAb Fc silent_L42-P1 and anti-CD48 NY938_CysmAb Fc silent_L42-P1 (2.5 and/or 5 mg/kg) were injected once IV in PBS in combination with ABT-199 (50 mg/kg, PO for 3 consecutive days=QD3 in PEG/ethanol/phosal). Mice body weight was monitored three times a week and tumor size measured using electronic calipers. Tumor volume was estimated by measuring the minimum and maximum tumor diameters using the formula: (minimum diameter)^2 (maximum diameter)/2. […]
With DTV (Delta Tumor Volume) at Dx, calculated being TV at Dx-TV at Randomization. Tumor Growth Delay (TGD) was calculated as the number of days required for the median tumor volume in each group to reach back the starting tumor volume (at randomization). […]

Turning to `CC(C)C[C@H](NC(=O)[C@H](Cc1ccccc1)NC(=O)c1cnccn1)B(O)O` [Bortezomib], in the experiment with KMS-21-BM xenografts (IV (once)), the “% TGI (d21)” value worked out at 88.09%. In addition, in the experiment on KMS-21-BM xenografts (IV, median tumor volume to reach 500 mm^3), the TGD worked out at 42.53 days.
On to `COc1ccccc1-c1nccc(COc2ccccc2C[C@@H](Oc2ncnc3sc(-c4ccc(F)cc4)c(-c4ccc(OCCN5CCN(C)CC5)c(Cl)c4C)c23)C(=O)O)n1` [P1, (2R)-2-[5-[3-chloro-2-methyl-4-[2-(4-methylpiperazin-1-yl)ethoxy]phenyl]-6-(4-fluorophenyl)thieno[2,3-d]pyrimidin-4-yl]oxy-3-[2-[[2-(2-methoxyphenyl)pyrimidin-4-yl]methoxy]phenyl]propanoic acid], for which the pIC50 with KMS-27 (120 h) is 7.95; with KMS-21-BM (120 h) it was 8.94; with NCI-H929 (Homo sapiens, 120 h), 8.33; in experiment [1] it was 7.95 to 8.94. In addition, the entries for the “Amax (Span)” value with KMS-27, in the experiment on KMS-21-BM and with NCI-H929 were 99, 100.9 and 110.3, respectively.
With `CC1(C)CCC(CN2CCN(c3ccc(C(=O)NS(=O)(=O)c4ccc(NCC5CCOCC5)c([N+](=O)[O-])c4)c(Oc4cnc5[nH]ccc5c4)c3)CC2)=C(c2ccc(Cl)cc2)C1` [ABT-199, venetoclax], the “% TGI (d4)” value with KMS27 xenografts was determined as 120.82%. In addition, the TGD with KMS27 xenografts (to reach back starting tumor volume) is on record as 6.27 days.
